Measurements taken from patent publication US20090088432A1, “Thiazolinones and Oxazolinones and their Use as Ptp1b Inhibitors” (priority 2005, published 2009).
Structures can show the parent of a compound that is named as a salt.

These compounds were tested against T1, Recombinant human Protein-tyrosine phosphatase1B (PTP1B) (Homo sapiens, UniProt P18031) (assay: PTP1B enzyme inhibition assay (pNpp substrate)). Settings: inhibition of recombinant human PTP1B, pNpp 5 mM, 30 mins at 25° C; inhibitor concentration not given.
T1 construct: Recombinant human Protein-tyrosine phosphatase1B (PTP1B) (amino acid 1-322 Biomol, USA); purchased Biomol, USA
T1 sequence (P18031 1-322): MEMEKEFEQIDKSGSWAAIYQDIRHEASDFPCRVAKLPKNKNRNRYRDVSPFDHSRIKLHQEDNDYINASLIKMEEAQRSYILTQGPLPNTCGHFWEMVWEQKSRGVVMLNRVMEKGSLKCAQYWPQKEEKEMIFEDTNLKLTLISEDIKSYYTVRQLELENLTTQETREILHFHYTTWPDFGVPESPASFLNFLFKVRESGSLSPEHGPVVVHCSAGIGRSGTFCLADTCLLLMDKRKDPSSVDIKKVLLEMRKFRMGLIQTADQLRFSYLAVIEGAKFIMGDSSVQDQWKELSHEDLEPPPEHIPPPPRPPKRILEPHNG
Type: biochemical
Protocol: Protein tyrosine phosphatase 1B (PTP1B) is an intracellular enzyme which functions by removing the phosphate groups from phosphorylated tyrosine residues of cellular proteins. PTP1B has been implicated as a negative regulator of insulin action and therefore is of therapeutic interest. The ability of the test compounds to inhibit the activity of PTP1B is determined using an enzyme inhibition assay.
The assay is performed using two independent substrates of PTP1B namely, p-nitrophenyl phosphate (pNpp) and the phosphorylated Epidermal growth factor receptor peptide (EGFR).
In the assay performed with pNpp, the action of PTP1B results in the release of p-nitrophenol, which is yellow in colour and can be measured at 410 nm. In the case of the assay using EGFR, action of PTP1B results in the release of free phosphate group. This is trapped using a reagent containing ammonium molybdate and malachite green resulting in a colored complex whose absorbance can be measured at 620 nm.
1× Assay buffer 50 mM HEPES (pH 7.4) • 1 mM EDTA • 1 mM DTT • 0.05% Igepal® CA-630
Dilute recombinant Human PTP1B 1:150 in 1× Assay buffer for 10× stock,
Prepare 10× stock of pNpp (50 mM) in 1× Assay buffer
Prepare 100× stock in 100% DMSO, dilute 1:10 with 1× Assay buffer to get 10× stock in 10% DMSO.
PTP1B inhibition assay was performed using recombinant human PTP1B. PTP1B (0.016 μg/well) was incubated in a buffer containing 50 mM HEPES, 1 mM DTT, 1 mM EDTA and 0.05% Igepal® CA-630 with or without inhibitor (10× stock, final DMSO concentration is 1%) for 30 mins at 25° C. This was followed by addition of p-Nitrophenyl phosphate (pNpp) substrate (5 mM). The final volume of the reaction mixture is 50 μL and experiment was done in 96 well half area plate. The incubation was continued for 30 mins at 25° C. The conversion of pNpp to p-Nitrophenol (pNp) was measured at 410 nm in Spectramaxplus Spectrophotometer (Molecular Devices, USA).

Compound | Activity Score
CC(=C1SC(Nc2ccc(CC(=O)O)cc2)=NC1=O)c1cccc(-n2cccc2)c1 [Compound 61, (4-{4-Oxo-5-[1-(3-pyrrol-1-yl-phenyl)-ethylidene]-4,5-dihydro-thiazol-2-ylamino}-phenyl)-acetic acid] | (+) (+ = 10-20% inhibition)
(4-{5-[3-(3-Methoxy-benzyloxy)-naphthalen-2-ylmethylene]-4-oxo-4-4,5-dihydro-thiazol-2-ylamino}-phenyl)-sodium acetate [Compound 181] | (+) (+ = 10-20% inhibition)
CC(C)Oc1cc2ccccc2cc1C=C1SC(Nc2cccc(CC(=O)O)c2)=NC1=O [Compound 21, {3-[5-(3-Isopropoxy-naphthalen-2-ylmethylene)-4-oxo-4,5-dihydro-thiazol-2-ylamino]-phenyl}-acetic acid] | (+++) (+++ = >50% inhibition)
O=C(O)Cc1ccc(NC2=NC(=O)C(=Cc3ccc(-c4nnn[nH]4)cc3)S2)cc1 [Compound 19, (4-{4-Oxo-5-[4-(1H-tetrazol-5-yl)-benzylidene]-4,5-dihydro-thiazol-2-ylamino}-phenyl)-acetic acid] | (+++) (+++ = >50% inhibition)
O=C(O)Cc1ccc(NC2=NC(=O)C(=Cc3cccc(-n4cccn4)c3)S2)cc1 [Compound 91, {4-[4-Oxo-5-(3-pyrazol-1-yl-benzylidene)-4,5-dihydro-thiazol-2-ylamino]-phenyl}-acetic acid] | (++) (++ = 20-50% inhibition)
O=C(O)Cc1ccc(NC2=NC(=O)C(=Cc3ccc(-n4cccc4)cc3)S2)cc1 [Compound 18, {4-[4-Oxo-5-(4-pyrrol-1-yl-benzylidene)-4,5-dihydro-thiazol-2-ylamino]-phenyl}-acetic acid] | (+++) (+++ = >50% inhibition)
O=C(O)Cc1ccc(NC2=NC(=O)C(=Cc3cc4ccccc4cc3OCc3ccc(F)cc3)S2)cc1 [Compound 85, (4-{5-[3-(4-Fluoro-benzyloxy)-naphthalen-2-ylmethylene]-4-oxo-4,5-dihydro-thiazol-2-ylamino}-phenyl)-acetic acid] | (+++) (+++ = >50% inhibition)
COc1c(C=C2SC(Nc3ccc(CC(=O)O)cc3)=NC2=O)ccc2ccccc12 [Compound 146, {4-[5-(1-Methoxy-naphthalen-2-ylmethylene)-4-oxo-4,5-dihydro-thiazol-2-ylamino]-phenyl}-acetic acid] | (+++) (+++ = >50% inhibition)
O=C([O-])CCc1ccc(NC2=NC(=O)C(=Cc3ccc4ccccc4c3)S2)cc1.[Na+] [Compound 89, 3-[4-(5-Naphthalen-2-ylmethylene-4-oxo-4,5-dihydro-thiazol-2-ylamino)-phenyl]-sodium propionate] | (+) (+ = 10-20% inhibition)
CC(C)(C)c1cc(C=C2SC(Nc3ccc(CC(=O)O)cc3)=NC2=O)cc(C(C)(C)C)c1O [Compound 37, {4-[5-(3,5-Di-tert-butyl-4-hydroxy-benzylidene)-4-oxo-4,5-dihydro-thiazol-2-ylamino]-phenyl}-acetic acid] | (+++) (+++ = >50% inhibition)
O=C(O)Cc1csc(NC2=NC(=O)C(=Cc3cc4ccccc4cc3OCc3ccccc3)S2)n1 [Compound 133, {2-[5-(3-Benzyloxy-naphthalen-2-ylmethylene)-4-oxo-4,5-dihydro-thiazol-2-ylamino]-thiazol-4-yl}-acetic acid] | (+++) (+++ = >50% inhibition)
O=C(O)COc1ccc2cc(C=C3SC(Nc4ccc(CC(=O)O)cc4)=NC3=O)ccc2c1 [Compound 163, {4-[5-(6-Carboxymethoxy-naphthalen-2-ylmethylene)-4-oxo-4,5-dihydro-thiazol-2-ylamino]-phenyl}-acetic acid] | (+++) (+++ = >50% inhibition)
O=C(O)Cc1ccc(NC2=NC(=O)C(=Cc3cc4ccccc4cc3OCC3CCCO3)S2)cc1 (centres unmarked) [Compound 142, (4-{4-Oxo-5-[3-(tetrahydro-furan-2-ylmethoxy)-naphthalen-2-ylmethylene]-4,5-dihydro-thiazol-2-ylamino}-phenyl)-acetic acid] | (++) (++ = 20-50% inhibition)
{3-[5-(1-Carbamoylmethyl-1H-indol-3-ylmethylene)-4-oxo-4,5-dihydro-thiazol-2-ylamino]-phenyl}-acetic acid [Compound 23] | (+++) (+++ = >50% inhibition)
Cc1cc(C=C2SC(Nc3nc(CC(=O)O)cs3)=NC2=O)nn1-c1ccccc1 [Compound 134, {2-[5-(5-Methyl-1-phenyl-1H-pyrazol-3-ylmethylene)-4-oxo-4,5-dihydro-thiazol-2-ylamino]-thiazol-4-yl}-acetic acid] | (++) (++ = 20-50% inhibition)
O=C(O)Cc1ccc(NC2=NC(=O)C(=Cc3c[nH]c4ccccc34)S2)cc1 [Compound 8, {4-[5-(1H-Indol-3-ylmethylene)-4-oxo-4,5-dihydro-thiazol-2-ylamino]-phenyl}-acetic acid] | (+) (+ = 10-20% inhibition)

Now from value to compound:

Activity Score | Compound
(+) (+ = 10-20% inhibition) | O=C(O)Cc1ccc(NC2=NC(=O)C(=Cc3ccc(-c4ccccc4)cc3)S2)cc1 [Compound 94, [4-(5-Biplenyl-4-ylmethylene-4-oxo-4,5-dihydro-thiazol-2-ylamino)-phenyl]-acetic acid]
(++) (++ = 20-50% inhibition) | CC(C(=O)O)c1ccc(NC2=NC(=O)C(=Cc3ccc4ccccc4c3)S2)cc1 (centres unmarked) [Compound 53, 2-[4-(5-Naphthalen-2-yl-ethylene-4-oxo-4,5-dihydro-thiazol-2-ylamino)-phenyl]-propionic acid]
(+++) (+++ = >50% inhibition) | Cc1ccc(S(=O)(=O)NC(=O)Cc2ccc(NC3=NC(=O)C(=Cc4ccc(-c5ccc(F)cc5)cc4)S3)cc2)cc1 [Compound 215, N-(2-{4-[5-(4′-Fluoro-biphenyl-4-ylmethylene)-4-oxo-4,5-dihydro-thiazol-2-ylamino]-phenyl}-acetyl)-4-methyl-benzenesulfonamide sodium salt]
(+) (+ = 10-20% inhibition) | CNS(=O)(=O)Cc1ccc(NC2=NC(=O)C(=Cc3cn(CC(=O)O)c4ccccc34)S2)cc1 [Compound 44, {3-[2-(4-Methylsulfamoylmethyl-phenylamino)-4-oxo-4H-thiazol-5-ylidenemethyl]-indol-1-yl}-acetic acid]
(+++) (+++ = >50% inhibition) | O=C(O)Cc1ccc(NC2=NC(=O)C(=Cc3cc4ccccc4cc3O)S2)cc1 [Compound 32, {4-[5-(3-Hydroxy-naphthalen-2-ylmethylene)-4-oxo-4,5-dihydro-thiazol-2-ylamino]-phenyl}-acetic acid]
(++) (++ = 20-50% inhibition) | O=C(O)CCc1ccc(NC2=NC(=O)C(=Cc3cc4ccccc4cc3OCc3ccccc3)S2)cc1 [Compound 49, 3-{4-[5-(3-Benzyloxy-naphthalen-2-ylmethylene)-4-oxo-4,5-dihydro-thiazol-2-ylamino]-phenyl}-propionic acid]
(+++) (+++ = >50% inhibition) | O=C([O-])CCc1ccc(NC2=NC(=O)C(=Cc3ccc4cc(F)ccc4c3)S2)cc1.[Na+] [Compound 205, 3-{4-[5-(6-Fluoro-naphthalen-2-ylmethylene)-4-oxo-4,5-dihydro-thiazol-2-ylamino]-phenyl}-sodium propionate]
